In paper PMC3870587 (Biochemistry, 2013):
Where “and” joins values, the source holds several entries; their conditions need not be identical. Equal values may be shown once.

How the values were obtained:
human MTAP (apo) [1] = molecular target: T1, human MTAP (apo) (Homo sapiens, UniProt Q13126); experiment: Isothermal titration calorimetry of ligands binding to apo MTAP in Hepes buffer; conditions: for ΔΔG relative to MTA; contribution of the 9-deazaadenine (protonated N7): binding to apo MTAP, ΔG of MTA subtracted
T1 sequence (Q13126 1-283): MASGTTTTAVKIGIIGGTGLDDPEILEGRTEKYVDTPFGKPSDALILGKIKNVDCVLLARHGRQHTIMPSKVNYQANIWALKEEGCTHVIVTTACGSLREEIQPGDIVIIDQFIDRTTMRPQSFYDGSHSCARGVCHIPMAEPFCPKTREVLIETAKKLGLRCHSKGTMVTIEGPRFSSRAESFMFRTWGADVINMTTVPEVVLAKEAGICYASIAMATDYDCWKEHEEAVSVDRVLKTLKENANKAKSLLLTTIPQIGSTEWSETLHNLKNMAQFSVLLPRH

MTAP = conditions: steady-state kinetic analysis; ref [7],[12]; cited from earlier work
human MTAP (apo) [2] = molecular target: T1, human MTAP (apo); experiment: Isothermal titration calorimetry of ligands binding to apo MTAP in Tris buffer; conditions: for ΔHTris [n] / −TΔSTris: apo MTAP; for ΔHTris [n]: Tris buffer pH 7.4; for −TΔSTris: Tris; for ΔHcorrection share of total binding free energy: binding to apo MTAP; for ΔHcorrection / −TΔScorrection: without protonation/deprotonation effects
MTAP:phosphate complex [3] = experiment: Binding of TS analogues to the MTAP:phosphate complex; set-up: species or system human; conditions: from 40 nM to 90 pM
MTAP:phosphate complex [4] = conditions: read-out: dissociation constant (Kd); binding to MTAP:phosphate, ternary complex; ref [9],[10],[11]; cited from earlier work
[5] = test system: human head and neck cancer; conditions: immunodeficient mice; ref [4],[5]; cited from earlier work
human lung cancer = conditions: immunodeficient mice; ref [4],[5]; cited from earlier work
[6] = apo MTAP, Hepes, all three sites or first-listed set of sites
[7] = apo MTAP, Hepes, second-listed set of sites
[8] = all three sites or first two sites
[9] = all three sites [3] or first two sites [2]

| Compound | ΔG (human MTAP (apo) [1]; [6]) | ΔHHepes (human MTAP (apo) [1]; [6]) | −TΔSHepes (human MTAP (apo) [1]; [6]) | ΔG (human MTAP (apo) [1]; [7]) | ΔHHepes (human MTAP (apo) [1]; [7]) | −TΔSHepes (human MTAP (apo) [1]; [7]) | ΔΔG relative to MTA; contribution of the 9-deazaadenine (protonated N7) (human MTAP (apo) [1]) | NumberProton (protons released from the binding of ligand to MTAP) (human MTAP (apo) [2]; [8]) | ΔHTris - ΔHHepes (human MTAP (apo) [2]; [8]) | ΔHTris [n] (human MTAP (apo) [2]; [9]) | −TΔSTris (human MTAP (apo) [2]; [8]) | ΔHcorrection share of total binding free energy (human MTAP (apo) [2]) | ΔHcorrection (human MTAP (apo) [2]; [8]) | −TΔScorrection (human MTAP (apo) [2]; [8]) | Kd (MTAP:phosphate complex [4]) | other results |
| --- | --- | --- | --- | --- | --- | --- | --- | --- | --- | --- | --- | --- | --- | --- | --- | --- |
| 5'-methylthioadenosine [MTA, reference compound] | -11.1 kcal/mol and -11.1 ± 0.4 kcal/mol | -1.0 ± 0.3 kcal/mol | -10.1 kcal/mol and -10.1 ± 0.5 kcal/mol | -8.4 ± 0.1 kcal/mol | -6.1 ± 0.2 kcal/mol | -2.3 ± 0.2 kcal/mol |  |  |  |  |  |  |  |  |  | Km (MTAP): 1.7 µM |
| CSC[C@H]1CN(Cc2c[nH]c3c(N)ncnc23)C[C@@H]1O [MT-DADMe-ImmA] | -10.1 kcal/mol and -10.1 ± 0.2 kcal/mol | -10.2 ± 0.8 kcal/mol | 0.1 ± 0.8 kcal/mol | -9.5 ± 0.1 kcal/mol | -3 ± 1 kcal/mol | -7 ± 1 kcal/mol | -1.7 kcal/mol | 0.2 and 0.2 ± 0.1 | -1.2 ± 0.8 kcal/mol | -11.4 ± 0.2 kcal/mol | 1.3 ± 0.3 kcal/mol | 91% | -9.2 kcal/mol and -9.2 ± 0.9 kcal/mol | -0.9 ± 0.9 kcal/mol | 0.09 nM | ΔHTris [n] (human MTAP (apo) [2]; third site [1]): -10.3 ± 0.4 kcal/mol; −TΔSTris (human MTAP (apo) [2]; third site): 0.8 ± 0.4 kcal/mol; NumberProton (protons released from the binding of ligand to MTAP) (human MTAP (apo) [2]; third site): 1.1 and 1.1 ± 0.2; ΔHTris - ΔHHepes (human MTAP (apo) [2]; third site): -7 ± 1 kcal/mol; ΔHcorrection (human MTAP (apo) [2]; third site): 2 ± 1 kcal/mol; −TΔScorrection (human MTAP (apo) [2]; third site): -12 ± 1 kcal/mol; decrease of Kd, apo MTAP to ternary complex with phosphate (MTAP:phosphate complex [3]): 440 fold; effect on human head and neck cancer [5]: causes remission of human head and neck cancer; effect on human lung cancer (human lung cancer): suppresses the growth and metastases of human lung cancer |
| CSCC1NC(c2c[nH]c3c(N)ncnc23)[C@@H](O)[C@H]1O (stereo partly shown) [MT-ImmA] | -9.7 ± 0.1 kcal/mol | -9.59 ± 0.08 kcal/mol | -0.1 ± 0.1 kcal/mol |  |  |  | -1.3 kcal/mol | 0.5 and 0.50 ± 0.01 | -3.23 ± 0.09 kcal/mol | −12.82 ± 0.05 [3] kcal/mol | 3.1 ± 0.1 kcal/mol | 74% | -7.15 kcal/mol and -7.15 ± 0.09 kcal/mol | -2.6 ± 0.1 kcal/mol | 1 nM |  |
| Nc1ncnc2c(CN3CC(CSc4ccc(Cl)cc4)[C@H](O)C3)c[nH]c12 (stereo partly shown) [pClPhT-DADMe-ImmA] |  |  |  |  |  |  |  |  |  |  |  |  |  |  | 0.01 nM |  |
| O=P(O)(O)O [phosphate, potassium phosphate] | -6.51 kcal/mol and -6.51 ± 0.06 kcal/mol | -8.7 ± 0.3 kcal/mol | 2.2 ± 0.3 kcal/mol |  |  |  |  | −0.91 ± 0.05 | 5.9 ± 0.3 kcal/mol | −2.77 ± 0.04 [3] kcal/mol | -3.74 ± 0.07 kcal/mol |  | -13.1 kcal/mol and -13.1 ± 0.4 kcal/mol | 6.6 ± 0.4 kcal/mol |  | Kd (human MTAP (apo) [1]; apo MTAP, Hepes, all three sites): 17000 nM; protons absorbed from the buffer on binding to apo MTAP (human MTAP (apo) [2]; pH 7.4): 0.91 ± 0.05 |
